The target of data set [1] is PD-1/PD-L1 (Homo sapiens (Human), UniProt Q9NZQ7). In words: Homogenouse Time-Resolved Fluorescence (HTRF) binding assay, PD-1/PD-L1. The method, then:
Homogenouse Time-Resolved Fluorescence (HTRF) binding assay was used to detect the binding ability of the compound of the present disclosure to PD-1/PD-L1.
The purchased kit (CisBio, #64CUS000C-1) contains reagents required for experiments such as PD-1, PD-L1, anti-tag1-Eu, Anti-tag2-XL665, Dilute Buffer, and Detection Buffer.
• 1. The compound was configured with 100% DMSO into 10 concentrations with a concentration gradient of 3 times. • 2. The DMSO solution of the compound was added to Dilute Buffer solution, and the mixture was mixed well and transferred to a 96-well plate. • 3. PD-L1 was diluted with Dilute Buffer solution and then added to the above 96-well plate. • 4. PD-1 was diluted with Dilute Buffer solution and then added to the above 96-well plate, and incubated at room temperature for 30 minutes. • 5. One part of anti-tag1-Eu and one part of Anti-tag2-XL665 were added to Detection Buffer solution, and the mixture was mixed well and transferred to the above 96-well plate. • 6. The mixture in the 96-well plate was incubated at room temperature for 1 to 24 hours. • 7. The HTRF values were read with Envision.
Background: In TR-FRET formats the signal depends on donor and acceptor labels being close together.

In data set [2] the test system is MC38-PDL1 tumor (MC-38-hPD-L1 cells). In words: Tumor targeting study in Micro-PET/CT scanning, bilateral tumor model (Effect Embodiment 4), left tumor. It is filed as in vivo, C57BL/6J mice. As to conditions: Micro-PET/CT imaging, bilateral tumor mice. The method, then: • Tumor targeting study of compound 80 in Micro-PET/CT scanning • Experimental animal information: C57BL/6J mice, SPF grade; 15-21 g; • Construction of Bilateral Tumor Model Mice: • Cell Culture
(§1) Human-derived PD-L1 gene knock-in MC-38 cells (MC-38-hPD-L1 cells) were adherently cultured in vitro, and the culture conditions were DMEM medium plus 10% heat-inactivated fetal bovine serum and hygromycinB (final concentration was […]), and the cells were cultured at 37° C. with 5% CO2. Subculture of 2-3 times a week. When the cells were in the exponential growth phase, the cells were harvested, counted, and the left side of the mice was inoculated subcutaneously.
(§2) Mouse-derived MC-38 cells were adherently cultured in vitro, and the culture conditions were DMEM medium plus 10% heat-inactivated fetal bovine serum, and the cells were cultured at 37° C. with 5% CO2. Subculture of 2-3 times a week. When the cells were in the exponential growth phase, the cells were collected, counted, and the right side of the mice was inoculated subcutaneously.
(§3) 100 μL of 1×10^6 MC-38-hPD-L1 cell suspension was inoculated subcutaneously on the left dorsal side of C57BL/6J mice. The same mice were subcutaneously inoculated with 100 μL of 1×10^6 MC-38 cell suspension on the right dorsal side on the second day. After inoculation, the mice were fed normally, and after a certain number of days, tumor-bearing mice with the volume of bilateral transplanted tumor in the range of 150 mm^3−350 mm^3 were selected for test.
After quality control, compound 80 was diluted with 10% ethanol in physiological saline, and the drug was extracted and injected into each animal through tail vein. The administration volume was 100 μL/animal, and the administration dose was 100-200 μCi/animal. The study of Micro-PET/CT imaging was performed at 0.5 h, 1.5 h, 2.5 h, 3.5 h after injection of compound 80.

Data set [3] has as its system tumor. In words: Inhibitory effect on tumor in tumor-bearing mice. The format is in vivo, C57/BL6 mice. As to conditions: tail vein injection, 45 MBq per mouse, compared with the control group (PBS). An excerpt: • 1. Inhibitory effect of compound 78 on tumor • 1.1 Experimental animal information: tumor-bearing C57/BL6 mice; SPF grade; weight range: 17-20 g; Shanghai Qi'up Biomedical Technology Co., Ltd. • 1.2 Experimental process
Ten tumor-bearing mice with tumor volumes of 10-100 mm^3 were systematically and randomly divided into 2 groups according to tumor size, with 5 mice in each group, corresponding to PBS and compound 78 respectively. After anesthesia with isoflurane, tumor-bearing mice were injected into the tail vein with compound 78 with 45 MBq (approximately 1.2 mCi) per mouse and a volume of 0.2 mL. After administration, the tumor size and weight of the animals were measured periodically, and the tumor growth curve was drawn to understand the inhibitory effect of the drug on tumor.

Data set [4] has as its system MC38-PDL1 tumor (MC-38-hPD-L1 cells). In words: Tumor targeting study in Micro-PET/CT scanning, bilateral tumor model (Effect Embodiment 3), left tumor. It is filed as in vivo, C57BL/6J mice. As to conditions: Micro-PET/CT imaging, bilateral tumor mice.
Text: Tumor targeting study of compound 79 in Micro-PET/CT scanning 1. Experimental animal information: C57BL/6J mice, SPF grade; 15-21 g; model mouse construction: bilateral tumor • Construction of bilateral tumor model mice • Cell culture
as §1, §2, §3
After quality control, compound 79 was diluted with 10% ethanol in physiological saline, and the drug was extracted and injected into each animal through tail vein. The administration volume was 100 μL/animal, and the administration dose was 100-200 μCi/animal. The study of Micro-PET/CT imaging was performed at 0.5 h, 1.5 h, 2.5 h, 3.5 h after injection of compound 79.

Sequence of PD-1/PD-L1 (Q9NZQ7 19-238): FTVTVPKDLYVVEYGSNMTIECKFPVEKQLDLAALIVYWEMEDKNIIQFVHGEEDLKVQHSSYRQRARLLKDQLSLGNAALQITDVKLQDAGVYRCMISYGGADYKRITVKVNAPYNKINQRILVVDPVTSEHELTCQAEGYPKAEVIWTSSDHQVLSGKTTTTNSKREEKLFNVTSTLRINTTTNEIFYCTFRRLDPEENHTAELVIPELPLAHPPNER

On to `Cc1c(/C=C/c2cc(OCCOCCN3CCN(CC(=O)O)CCN(CC(=O)O)CCN(CC(=O)O)CC3)c(CN3CCCC[C@H]3C(=O)O)cc2C(F)(F)F)cccc1-c1ccccc1` [Compound 7], for which, in data set [1], the IC50 – broadly, the point on the concentration scale where inhibition reaches its midpoint – came to 0.969 nM. Also, the “uptake value of left tumor (MC38-PDL1) compared with right tumor (MC38)” value (“uptake value … compared with right tumor (MC38)” below) in data set [2] is given as “significantly higher”.
`Cc1c(/C=C/c2cc(OCCCCNC(=O)CN3CCN(CC(=O)O)CCN(CC(=O)O)CCN(CC(=O)O)CC3)c(CN3CCCC[C@H]3C(=O)O)cc2C(F)(F)F)cccc1-c1ccccc1` [Compound 8] registered an IC50 in data set [1] of 0.522 nM. Further, the “uptake value … compared with right tumor (MC38)” value in data set [2] is on record as “significantly higher”.
`Cc1ccc(CCCC(=O)NCCCC[C@H](NC(=O)CN2CCN(CC(=O)O)CCN(CC(=O)O)CCN(CC(=O)O)CC2)C(=O)NCCCCCCOc2cc(/C=C/c3cccc(-c4ccccc4)c3C)c(C(F)(F)F)cc2CN2CCCC[C@H]2C(=O)O)cc1` [Compound 26]: the IC50 in data set [1] is 33.2 nM. Further, in data set [3], the “inhibition of tumor growth” value was “very good therapeutic effects on inhibiting tumor growth”.
In data set [1], `Cc1ccc(CCCC(=O)NCCCC[C@H](NC(=O)CN2CCN(CC(=O)O)CCN(CC(=O)O)CCN(CC(=O)O)CC2)C(=O)NCCCCCCOc2cc(/C=C/c3cccc(-c4ccccc4)c3C)c(C(F)(F)F)cc2CN2CCCC[C@H]2C(=O)O)cc1` [Compound 27] displayed an IC50 of 13.6 nM. For the same compound, in data set [2], the “uptake value … compared with right tumor (MC38)” value is “significantly higher”.
With `Cc1c(/C=C/c2cc(OCCCCCCNC(=O)CN3CCN(CC(=O)[O-])CCN(CC(=O)[O-])CCN(CC(=O)[O-])CC3)c(CN3CCCC[C@H]3C(=O)O)cc2C(F)(F)F)cccc1-c1ccccc1.[Ga+3]` [Compound 28], the IC50 in data set [1] was determined as 0.562 nM. For the same compound, the “uptake value … compared with right tumor (MC38)” value in data set [2] is “significantly higher”.
Consider `Cc1ccc(CCCC(=O)NCCCC[C@H](NC(=O)CN2CCN(CC(=O)O)CCN(CC(=O)O)CCN(CC(=O)O)CC2)C(=O)NCCOCCOc2cc(/C=C/c3cccc(-c4ccccc4)c3C)c(C(F)(F)F)cc2CN2CCCC[C@H]2C(=O)O)cc1` [Compound 32], for which the IC50 in data set [1] is 12.4 nM. For the same compound, the “inhibition of tumor growth” value in data set [3] is reported as “very good therapeutic effects on inhibiting tumor growth”.
Compound `Cc1c(/C=C/c2cc(OCCNC(=O)C3CCC(CNC(=O)CN4CCN(CC(=O)O)CCN(CC(=O)O)CCN(CC(=O)O)CC4)CC3)c(CN3CCCC[C@H]3C(=O)O)cc2C(F)(F)F)cccc1-c1ccccc1` (some centres unmarked) [Compound 35] registered an IC50 in data set [1] of 0.766 nM. Moreover, the “uptake value … compared with right tumor (MC38)” value in data set [2] was “significantly higher”.
As for `Cc1c(/C=C/c2cc(OCCNC(=O)C3CCN(C(=O)CN4CCN(CC(=O)O)CCN(CC(=O)O)CCN(CC(=O)O)CC4)CC3)c(CN3CCCC[C@H]3C(=O)O)cc2C(F)(F)F)cccc1-c1ccccc1` [Compound 36], the IC50 in data set [1] turned out to be 0.521 nM. Further, the “uptake value … compared with right tumor (MC38)” value in data set [2] is “significantly higher”.
As to `Cc1c(/C=C/c2cc(OCC3CCN(C(=O)CN4CCN(CC(=O)O)CCN(CC(=O)O)CCN(CC(=O)O)CC4)CC3)c(CN3CCCC[C@H]3C(=O)O)cc2C(F)(F)F)cccc1-c1ccccc1` [Compound 37], the IC50 in data set [1] turned out to be 0.729 nM. In addition, the “uptake value … compared with right tumor (MC38)” value in data set [2] was “significantly higher”.
Consider `Cc1c(/C=C/c2cc(OCCNC(=O)C3CCN(C(=O)CN4CCN(CC(=O)O)CCN(CC(=O)O)CCN(CC(=O)O)CC4)CC3)c(CN3CCCC[C@H]3C(=O)O)cc2C(F)(F)F)cccc1-c1ccccc1` [Compound 38], for which the IC50 in data set [1] turned out to be 1.13 nM. In addition, the “inhibition of tumor growth” value in data set [3] is “very good therapeutic effects on inhibiting tumor growth”.
`N#Cc1c(-c2ccccc2)ccnc1/C=C/c1cc(OCCCCCN2CCN(CC(=O)[O-])CCN(CC(=O)[O-])CC2)c(CN2CCCC[C@H]2C(=O)O)cc1C(F)(F)F.[Al+3].[F-]` [Compound 58]: in data set [4], the “uptake value … compared with right tumor (MC38)” value is on record as “significantly higher”.
Regarding `N#Cc1c(-c2ccccc2)ccnc1/C=C/c1cc(OCC2CCN(C(=O)CN3CCN(CC(=O)[O-])CCN(CC(=O)[O-])CC3)CC2)c(CN2CCCC[C@H]2C(=O)O)cc1C(F)(F)F.[Al+3].[F-]` [Compound 60], the “uptake value … compared with right tumor (MC38)” value in data set [4] is listed as “significantly higher”.
As for `Cc1c(/C=C/c2cc(OCCCCNC(=O)CN3CCN(CC(=O)[O-])CCN(CC(=O)[O-])CC3)c(CN3CCCC[C@H]3C(=O)O)cc2C(F)(F)F)cccc1-c1ccccc1.[Al+3].[F-]` [Compound 62], the IC50 in data set [1] is 0.529 nM. Moreover, the “uptake value … compared with right tumor (MC38)” value in data set [4] is “significantly higher”.
The corresponding values for `Cc1c(/C=C/c2cc(OCCCNC(=O)CN3CCN(CC(=O)O)CCN(CC(=O)O)CC3)c(CN3CCCC[C@H]3C(=O)O)cc2C(F)(F)F)cccc1-c1ccccc1` [Compound 64] are 0.7 nM and “significantly higher”.
For `Cc1c(/C=C/c2cc(OCCOCCN3CCN(CC(=O)O)CCN(CC(=O)O)CCN(CC(=O)O)CC3)c(CN3CCCC[C@@H]3C(=O)O)cc2C(F)(F)F)cccc1-c1ccccc1` [Compound 70], the IC50 in data set [1] amounted to 47.7 nM. In addition, the “inhibition of tumor growth” value in data set [3] is “very good therapeutic effects on inhibiting tumor growth”.
`Cc1cc(CN2CCCC[C@H]2C(=O)O)c(OCCCCCN2CCN(CC(=O)O)CCN(CC(=O)O)CCN(CC(=O)O)CC2)cc1/C=C/c1cccc(-c2ccccc2)c1C` [Compound 72] showed an IC50 in data set [1] of 112 nM. Besides, the “inhibition of tumor growth” value in data set [3] is reported as “very good therapeutic effects on inhibiting tumor growth”.
Consider `Cc1c(/C=C/c2cc(OCCOCCN3CCN(CC(=O)[O-])CCN(CC(=O)[O-])CCN(CC(=O)[O-])CC3)c(CN3CCCC[C@H]3C(=O)O)cc2C(F)(F)F)cccc1-c1ccccc1.[68Ga+3]` [Compound 75], for which the “uptake value … compared with right tumor (MC38)” value in data set [2] is “significantly higher”.
Turning to `COc1cc(C(=O)Nc2cccc(-c3cccc(/C=C/c4cc(OCCOCCN5CCN6CCN(CC5)CC(=O)[O][Al]([F])[O]C(=O)C6)c(CN5CCCC[C@H]5C(=O)O)cc4C(F)(F)F)c3C)c2C)ncc1CN1CCCC[C@H]1C(=O)O` [Compound 82], in data set [4], the “uptake value … compared with right tumor (MC38)” value is reported as “significantly higher”.
